# Several values for one entry are separate records, joined by “and”; a condition that tells them apart may be missing. Equal values may be shown once. Activity calls are given as the source filed them.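 Rule for the calls: active = compounds raising the signal whose fitted half-maximal concentration is at or below their top tested dose (cut at about 25 µM in these data); inconclusive = flat fit at 30 to 70% activity, or a poor fit; inactive = the rest.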
# Tested on: INS-1E rat beta cells, no cytokines, CellTiter-Glo ATP, 48 h
# Assay: ATP level change in INS-1E without cytokines, dose response, counter-screen for beta-cell apoptosis protection project, INS-1E rat cells, ATP luminescence, cherry pick (AID 463229)
row,SMILES,AC50
1,COc1ccc(C(CCN2CCCCC2)c2c(OC)cc(OC)c3c(-c4ccccc4)cc(=O)oc23)cc1 (stereo not given),14.1 µM
2,CCOC(=O)CC1CCCCN1C(=O)c1cc(COc2cccc3cnccc23)on1 (stereo not given),8.19 µM
3,Oc1c(C(c2ccccc2Cl)N2CCCC2)ccc2cccnc12 (stereo not given),7.11 µM
4,CCCCCCC(=O)N1C/C=C\C(c2ccc(OC)cc2)N(Cc2ccc(F)cc2)C(=O)[C@H]1Cc1ccccc1 (stereo not given in full),5.73 µM
5,Fc1ccc2nc(Nc3nc4c(F)cc(F)cc4s3)sc2c1,7.69 µM
6,O=C(CNC(=O)c1ccccc1)N/N=C/c1cc(Br)ccc1O,15.2 µM
7,CCOC(=O)c1cccc(-[n+]2c(-c3ccccc3)cc(-c3ccccc3)cc2-c2ccccc2)c1,3.59 µM
8,Cc1cc(C)cc(NC(=O)/C(C#N)=C/c2cn(CC(=O)NCc3ccco3)c3ccccc23)c1,5.06 µM
9,FC(F)Sc1ccc(N=C2NN=C(c3ccc4c(c3)OCCO4)CS2)cc1,2.9 µM
10,Nc1nc(N)c2cc(Sc3ccc4ccccc4c3)ccc2n1,2.09 µM
11,CCCCCCC[n+]1ccc(-c2cc[n+](CCCCCCC)cc2)cc1,3 µM
12,C[N+]1=C(/C=C/Nc2ccccc2Cl)C(C)(C)c2ccccc21,12.2 µM
13,Cc1cc(/C=N/n2cnnc2)c(C)n1-c1ccc(OCc2ccc(Cl)cc2Cl)cc1,1.71 µM
14,C#CCOCCOCCOCCNc1nc(N2CCN(C(=O)CCCCCCCCCCNC(=O)[C@H]([C@@H](C)CC)n3cc(CCCCCN)nn3)CC2)nc(N2CCN(C(=O)CCCCCCCCCCNC(=O)[C@@H]([C@H](C)O)n3cc(C)nn3)CC2)n1,6.55 µM
15,COc1ccc(/C(C)=N/NC(=O)c2cccc(S(=O)(=O)N3CCCC3)c2)c(O)c1,3.8 µM
16,COC(/C(=N/O)c1ccc(Cl)cc1)c1ccccc1 (stereo not given),2.66 µM
17,O=C(Nc1ccc([N+](=O)[O-])cc1)Nc1ccc(Cl)cc1F,6.71 µM
18,CCOC(=O)CS(=O)(=O)c1nc(-c2ccccc2)cc(C(F)(F)F)n1,8.1 µM
19,Cc1ccc(Cl)cc1NC1=C/C(=N\S(=O)(=O)c2cccs2)c2ccccc2C1=O,4.61 µM
20,Oc1c(C(Nc2cccc(C(F)(F)F)c2)c2ccncc2)ccc2cccnc12 (stereo not given),6.84 µM
21,O=C(CSC1c2ccccc2-c2ccccc21)N/N=C/c1ccccc1O,6.8 µM
22,Cc1ccc(N=Cc2c(C)[nH]n(-c3nc4ccccc4[nH]3)c2=O)cc1,1.85 µM
23,CC(C)CN(C(=O)COC(=O)C12CC3CC(CC(C3)C1)C2)c1c(N)n(Cc2ccccc2)c(=O)[nH]c1=O,3.89 µM
24,C=CCn1c(=NC(=O)c2cc(-c3cccs3)nc3ccccc23)sc2cc(S(N)(=O)=O)ccc21,17.9 µM
25,COC(=O)c1ccc(NC(=O)c2cccnc2)cc1,7.58 µM
26,Cc1ccc(-c2csc(NC(=O)c3c(C)noc3C)n2)s1,4.85 µM
27,C#CCOCCOCCOCCNc1nc(N2CCN(C(=O)CCCCCCCCCCNC(=O)[C@H]([C@@H](C)CC)n3cc(CCCCCN)nn3)CC2)nc(N2CCN(C(=O)CCCCCCCCCCNC(=O)[C@H]([C@@H](C)CC)n3cc(CCCCN=C(N)N)nn3)CC2)n1,6.72 µM

row,SMILES,AC50
1,Cc1ccc(NC(=O)C2CCN(S(=O)(=O)c3ccc(N4CCCC4=O)cc3)CC2)cc1Cl,2.37 µM
2,O=C(COC(=O)c1cn(-c2ccccc2)nc1-c1ccccc1)c1cccc([N+](=O)[O-])c1,2.8 µM
3,COc1cc(/C=C2\CC(C(C)(C)C)C/C(=C\c3cc(OC)c(OC)c(OC)c3)C2=O)cc(OC)c1OC (stereo not given),6.04 µM
4,O=C(NCc1ccccc1)C1=C[C@@H](c2csc3ccccc23)C[C@@H](OCc2ccc(CO)cc2)O1,5.16 µM
5,O=[N+]([O-])c1ccc(N=Nc2c(Cl)cc(O)cc2Cl)cc1,2.08 µM
6,N=c1c2c(n(Cc3ccc(Cl)cc3Cl)c3c1CCC3)CCCC2,3.99 µM
7,CCCCCc1nc2c(c(=O)c3ccccc3n2C)c(=O)n1C1CCCCCC1,6.84 µM
8,COc1cccc(/C=N/Nc2nc3ccccc3[nH]2)c1O,8.89 µM
9,Cc1cc(N/N=C\c2ccc(Br)cc2)nc(-n2nc(C)cc2C)n1,21.5 µM
10,Clc1ccc(-c2cc(-c3nnc4n3CCCCC4)c3ccccc3n2)cc1,4.91 µM
11,CC(=O)c1cn(CCOc2cc(C)ccc2C)c2ccccc12,4.67 µM
12,COc1ccc(O)c(/C=N/Nc2nc(Nc3ccccc3)nc(-n3nc(C)cc3C)n2)c1,11.3 µM
13,C/C(=N\NC(=O)c1cc(-c2cccnc2)nc2ccccc12)c1ccccc1O,5.74 µM
14,Cc1ccc(NC(=O)/C=C/c2ccc([N+](=O)[O-])s2)c(C)c1,13.1 µM
15,CCSCCc1nnc(NC(=O)Nc2cccc(C(F)(F)F)c2)s1,4.25 µM
16,Cc1cccc2nc(CSc3nc4[nH]ncc4c(=O)n3-c3cccc(Cl)c3)cc(=O)n12,7.35 µM
17,Cc1[nH]n(-c2ccccc2)c(=O)c1/C=N/NC(=O)COc1ccccc1[N+](=O)[O-],8.45 µM
18,C=C1C(=O)O[C@H]2C[C@@H](C)[C@@H]3C=CC(=O)[C@@]3(C)C[C@H]12,7.64 µM
19,O=Nc1c(O)c2ccccc2c2ccccc12,7.61 µM
20,CCOc1ccc(Nc2nc(Cc3nnc(SCC(=O)c4ccc(C)c(C)c4)o3)cs2)cc1,10.6 µM
21,CCCCOc1cc(NCc2ccccc2)c2ncn(C(C)C)c2c1,7.26 µM
22,Cc1ccc(NC(=O)c2ccccc2NS(=O)(=O)c2ccc(Cl)s2)cc1,5.78 µM
23,O=[N+]([O-])c1ccc(N2CCN(C(=S)NCc3ccc(Cl)cc3)CC2)cc1,10.3 µM
24,Cc1ccc(S(=O)(=O)/N=C2\C=C(Nc3ccc(O)cc3)C(=O)c3ccccc32)cc1,1.91 µM
25,COc1ccc(-c2nn(-c3ccccc3)cc2/C=N/N2C(=O)CSC2=S)cc1,6.57 µM
26,Cc1cc2nc(-c3ccc[nH]c3=O)[nH]c2cc1C,2.42 µM
27,CCCC(=O)NC(c1ccc2c(c1)OCO2)c1cc(Cl)c2cccnc2c1O (stereo not given),4.39 µM

row,SMILES,AC50
1,CCOc1ccc(OCc2ccc(C(=O)N/N=C(\C)c3ccccn3)cc2)cc1,5.09 µM
2,CC(Nc1ncnc2ccccc12)c1ccccc1 (stereo not given),3.58 µM
3,O=C(NCc1nc(-c2ccc(C(F)(F)F)cc2)no1)Nc1cc(Cl)cc(Cl)c1,6.94 µM
4,O=[N+]([O-])c1ccc(Sc2cccc3cccnc23)c([N+](=O)[O-])c1,14.5 µM
5,Cc1ccc(S(=O)(=O)/N=C2\C=C(Nc3cccc(C(=O)O)c3)C(=O)c3ccccc32)c(C)c1,7.81 µM
6,Cc1cccc2c(C(=O)N3CCN(c4ccccn4)CC3)cc(-c3cccc(Br)c3)nc12,3.08 µM
7,COc1ccc2c(c1)C(=O)[C@H](O)[C@@H](c1ccc(OC)c(Br)c1)O2,7.97 µM
8,COc1cccc(/C=N/Nc2cc(N3CCOCC3)ncn2)c1O,14.2 µM
9,CC1CCC(C(C)C)C(OC(=O)Cn2c(-c3ccc(Br)cc3)[n+](C)c3ccccc32)C1 (stereo not given),3.86 µM and 4.4 µM
10,C=C1C(=O)C=C2CN(C(=O)c3ccccc3)[C@@](Cc3ccc(F)cc3)(C(=O)OC)[C@@H]12,2.56 µM
11,O=c1c2ccccc2nc(N/N=C/c2c(O)ccc3ccccc23)n1O,3.65 µM
12,CC(=O)Nc1ccc(NC2=C/C(=N/S(=O)(=O)c3cccs3)c3ccccc3C2=O)cc1,7.66 µM
13,CCc1c(C2(O)CCCCC2)[nH]c2cc(C(F)(F)F)ccc12,11 µM
14,O=C(NCc1cccnc1)/C(=C\c1ccc(-c2ccc(Cl)c(Cl)c2)o1)S(=O)(=O)c1ccccc1,4.62 µM
15,COc1ccc(-c2nc3ccc(C)cn3c2NCc2ccccc2)cc1SC1CCCCC1,2.34 µM
16,CC(C)N=c1cc2n(-c3ccc(Cl)cc3)c3ccccc3nc-2cc1Nc1ccc(Cl)cc1,6.69 µM
17,Cc1ccc(NC(=O)C2CCN(S(=O)(=O)c3ccc4c(c3)NC(=O)C(C)S4)CC2)cc1Cl (stereo not given),4.64 µM
18,FC(F)(F)c1cnc(NNC(=S)Nc2ccccc2Cl)c(Cl)c1,7.03 µM
19,O=C(NC(c1ccc(Cl)cc1)c1cc(Cl)c2cccnc2c1O)c1cccnc1 (stereo not given),6.6 µM
20,Cc1sc2ncnc(NCC3COc4ccccc4O3)c2c1C (stereo not given),2.34 µM
21,CN(c1ccccc1)c1ccc(/C=C/[N+](=O)[O-])cc1,8.01 µM
22,Cc1nnsc1-c1onc(C)c1C(=O)Nc1cc(Cl)cc(Cl)c1,16.5 µM
23,O=C(Nc1cccnc1)c1ccc([N+](=O)[O-])s1,15.3 µM
24,COc1ccc(CNc2ncnc3sccc23)cc1,11.3 µM
25,Cc1ccc(-n2c(Cl)c(Cl)nc(Cl)c2=O)cc1,6.66 µM
26,COc1ccc(O)c(/C=N/NC(=O)c2ccc(OCc3cccc(Br)c3)cc2)c1,19.8 µM
27,Cc1nn(C)c(C)c1CN(Cc1nc(CCC(C)C)no1)C(C)C,4.22 µM

row,SMILES,AC50
1,O=C(CNc1ccccc1)N/N=C/c1c(O)ccc2ccccc12,15.8 µM
2,O=C(Nc1nc2ccc(F)cc2s1)c1ccccn1,4.43 µM
3,Cc1ccccc1OCCCCn1cnc2ccccc21,7.47 µM
4,Cc1ccc(NC(=O)CCC(=O)N/N=C/c2ccc([N+](=O)[O-])o2)cc1C,19.8 µM
5,CCN1CCN(c2c(Cl)cccc2NC(=O)c2ccc([N+](=O)[O-])o2)CC1,7.11 µM
6,OC(c1cc(-c2ccc(C(F)(F)F)cc2)nc(C(F)(F)F)c1)C1CCCCN1 (stereo not given),6.81 µM
7,CCN(CC)c1ccc(/C=N/NC(=O)CCC(=O)NCc2ccccc2)c(O)c1,7.22 µM
8,Cc1ccc(S(=O)(=O)Nc2ccc(O)c3ccccc23)c(C)c1,13.7 µM
9,CN1C2CCC1/C(=C/c1ccccn1)C(=O)/C2=C\c1ccccn1,2.11 µM
10,CC(C)C[C@H](NC(=O)c1nc[nH]c1C(=O)N[C@@H](CC(C)C)C(=O)OC(C)(C)C)C(=O)OCc1ccccc1,14.6 µM
11,CN(C)CCOc1ccc(-c2c(-c3ccccc3)sc3ccccc23)cc1,12.8 µM
12,CCN(CC)c1ccc(/C=N/N(c2ccccc2)c2ccccc2)c(O)c1,4.58 µM
13,O=C(N/N=C/c1cc(Br)c(Br)s1)c1ccncc1,9.72 µM
14,CCOc1cc(CNCCc2ccc(S(N)(=O)=O)cc2)ccc1OCc1ccc(Cl)cc1,7.84 µM
15,O=C(N/N=C\c1cc(Br)ccc1O)c1ccc(S(=O)(=O)N2CCCCC2)cc1,3.54 µM
16,CCn1c(NN=O)nc2ccccc21,7.85 µM
17,O=C(Oc1c(CN2CCOCC2)cc(Cl)c2cccnc12)c1cccs1,16 µM
18,CN1/C(=C\C(=O)c2ccco2)C(C)(C)c2ccccc21,7.58 µM
19,COC(=O)C1CCCCN1C(=O)c1cc(COc2cccc3cnccc23)on1 (stereo not given),7.11 µM
20,CCOC(=O)c1c(C)[nH]c(C(=O)OCC(=O)NC(C)(C)C)c1C,13.1 µM
21,CCC(CNc1cc(OC)cc2cccnc12)NC1CCCCC1 (stereo not given),> 26 µM (inactive)
22,Cc1nnc(N=c2ssnc2Cl)o1,13.6 µM
23,COc1ccc(-n2c(-c3ccc(Br)cc3)c[n+]3c2CCc2ccccc2-3)cc1,1.86 µM
24,CCOC(=O)c1nc(NNC(=O)c2ccc([N+](=O)[O-])cc2)sc1C,7.04 µM

# Reference: PubChem BioAssay AID463229 (Broad Institute, 2010)
